Assay [1] has as its target T1, human muscarinic acetylcholine M3 receptor (Homo sapiens, UniProt P20309).
T1 construct: expressed in transfected cells; host or cells: CHO-K1 (Chinese Hamster Ovary) cell membranes
In words: Muscarinic 3 receptor binding assay ([3H]NMS competition, SPA), single concentration 1 μM. The settings on record: 1 μM compound; % inhibition specific [3H]-NMS binding. In short, it runs like this:
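CHO-K1 membranes expressing human M3 on SPA beads, competition with 0.1 nM [3H]NMS (quarter Kd) in 20 mM HEPES pH 7.4, 5 mM MgCl2, 0.1% BSA, 1% DMSO; compound at 1 μM. 16 h at room temperature. Value is % inhibition of specific binding, non-specific defined with 1 μM atropine.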

The next assay has as its target T2, Adrenergic β2 (Homo sapiens, UniProt P07550).
T2 construct: Adherent H292 cells are removed from tissue culture flasks by treatment with Accutase™ cell detachment solution; endogenous in cells; host or cells: H292 cells
The experiment in a line: Adrenergic β2 mediated cAMP production in H292 cells, single concentration 1 μM. It is filed as cell-based. To be noted: cAMP as percentage of the maximum response generated by 1E-07M formoterol; for percent of formoterol maximum response at 1 µM: NCI-H292, 1 μM compound, read-out: β2 % effect @1 uM; for β2 % effect @1 uM: 1 μM compound. In short, it runs like this:
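H292 cells pretreated with rolipram (300 μM final) 10 min, then compound at 1 μM final, 1% DMSO, 60 min at room temperature in HBSS/10 mM HEPES pH 7.4/5 mM glucose. Lysate cAMP quantified by AlphaScreen against a standard curve, as % of maximal response to 1E-07M formoterol.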
In general terms: Changes in cAMP serve as a functional read-out for many G protein-coupled receptors.

SMILES strings stand for the structures.

T1 sequence (P20309 whole entry): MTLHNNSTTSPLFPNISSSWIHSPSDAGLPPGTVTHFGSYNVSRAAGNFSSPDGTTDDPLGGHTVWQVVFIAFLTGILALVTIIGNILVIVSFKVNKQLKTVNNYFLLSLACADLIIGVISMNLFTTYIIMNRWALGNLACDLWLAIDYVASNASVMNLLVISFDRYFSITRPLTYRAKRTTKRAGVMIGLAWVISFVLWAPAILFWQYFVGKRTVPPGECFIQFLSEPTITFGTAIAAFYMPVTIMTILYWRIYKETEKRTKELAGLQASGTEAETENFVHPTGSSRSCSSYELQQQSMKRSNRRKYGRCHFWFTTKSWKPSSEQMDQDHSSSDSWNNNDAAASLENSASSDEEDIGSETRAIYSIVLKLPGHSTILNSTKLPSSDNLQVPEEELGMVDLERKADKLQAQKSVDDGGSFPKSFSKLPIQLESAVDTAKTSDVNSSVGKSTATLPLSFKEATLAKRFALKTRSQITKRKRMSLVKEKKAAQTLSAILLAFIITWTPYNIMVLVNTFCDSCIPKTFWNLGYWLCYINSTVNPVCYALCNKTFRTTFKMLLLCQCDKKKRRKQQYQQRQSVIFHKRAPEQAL
T2 sequence (P07550 whole entry): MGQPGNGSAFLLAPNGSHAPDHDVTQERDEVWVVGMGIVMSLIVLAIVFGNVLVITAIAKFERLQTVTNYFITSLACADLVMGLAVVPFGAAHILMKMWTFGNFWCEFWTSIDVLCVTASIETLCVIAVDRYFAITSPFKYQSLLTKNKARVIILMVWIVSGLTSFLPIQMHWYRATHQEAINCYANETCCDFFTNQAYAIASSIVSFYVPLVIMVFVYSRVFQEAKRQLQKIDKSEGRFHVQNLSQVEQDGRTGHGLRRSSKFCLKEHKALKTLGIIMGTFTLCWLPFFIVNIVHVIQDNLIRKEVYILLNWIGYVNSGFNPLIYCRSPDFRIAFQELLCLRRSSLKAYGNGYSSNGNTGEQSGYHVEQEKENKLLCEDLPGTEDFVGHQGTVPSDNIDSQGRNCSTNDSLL

Broadly, the inhibition is the relative decrease from the control value, in per cent. Take `O=C1COc2c(CCNCCN(C(=O)CCOCCc3cccc(CN4CCC5(CC4)CN(C(=O)[C@@H](O)Cc4ccccc4)CCO5)c3)C3CCCCC3)ccc(O)c2N1` [Example 134, (S)-N-Cyclohexyl-N-(2-(2-(5-hydroxy-3-oxo-3,4-dihydro-2H-benzo[b][1,4]oxazin-8-yl)ethylamino)ethyl)-3-(3-((4-(2-hydroxy-3-phenylpropanoyl)-1-oxa-4,9-diazaspiro[5.5]undecan-9-yl)methyl)phenethoxy)propanamide]: in assay [1], the inhibition at 1 µM stood at 97%. The percent of formoterol maximum response at 1 µM at Adrenergic β2 is 89%.

In the case of `O=C1COc2c(CCNCCN(C(=O)CCOCCc3cccc(CN4CCC5(CC4)CN(C(=O)c4ccc(-n6ccnc6)cc4)CCO5)c3)C3CCCCC3)ccc(O)c2N1` [Example 135, 3-(3-((4-(4-(1H-Imidazol-1-yl)benzoyl)-1-oxa-4,9-diazaspiro[5.5]undecan-9-yl)methyl)phenethoxy)-N-cyclohexyl-N-(2-(2-(5-hydroxy-3-oxo-3,4-dihydro-2H-benzo[b][1,4]oxazin-8-yl)ethylamino)ethyl)propanamide], the inhibition at 1 µM in assay [1] is 66%. Besides, the percent of formoterol maximum response at 1 µM at Adrenergic β2 was found to be 86%.

Turning to `Cc1ccc2[nH]c(C(=O)N3CCOC4(CCN(Cc5cccc(CCOCCC(=O)N(CCNCCc6ccc(O)c7c6OCC(=O)N7)C6CCCCC6)c5)CC4)C3)cc2c1` [Example 136, N-Cyclohexyl-N-(2-(2-(5-hydroxy-3-oxo-3,4-dihydro-2H-benzo[b][1,4]oxazin-8-yl)ethylamino)ethyl)-3-(3-((4-(5-methyl-1H-indole-2-carbonyl)-1-oxa-4,9-diazaspiro[5.5]undecan-9-yl)methyl)phenethoxy)propanamide], in assay [1], the inhibition at 1 µM is 99%. Besides, the percent of formoterol maximum response at 1 µM at Adrenergic β2 is 92%.

`CC(C)C[C@H](O)C(=O)N1CCOC2(CCN(Cc3cccc(CCOCCC(=O)N(CCNCCc4ccc(O)c5c4OCC(=O)N5)C4CCCCC4)c3)CC2)C1` [Example 137, (S)-N-Cyclohexyl-N-(2-(2-(5-hydroxy-3-oxo-3,4-dihydro-2H-benzo[b][1,4]oxazin-8-yl)ethylamino)ethyl)-3-(3-((4-(2-hydroxy-4-methylpentanoyl)-1-oxa-4,9-diazaspiro[5.5]undecan-9-yl)methyl)phenethoxy)propanamide]: the inhibition at 1 µM in assay [1] was 100%. The percent of formoterol maximum response at 1 µM at Adrenergic β2 was 88%.

For the compound `Cc1ccccc1CC(=O)N1CCOC2(CCN(Cc3cccc(CCOCCC(=O)N(CCNCCc4ccc(O)c5c4OCC(=O)N5)C4CCCCC4)c3)CC2)C1` [Example 139, N-Cyclohexyl-N-(2-(2-(5-hydroxy-3-oxo-3,4-dihydro-2H-benzo[b][1,4]oxazin-8-yl)ethylamino)ethyl)-3-(3-((4-(2-o-tolylacetyl)-1-oxa-4,9-diazaspiro[5.5]undecan-9-yl)methyl)phenethoxy)propanamide], the inhibition at 1 µM in assay [1] was determined as 100%. Moreover, the percent of formoterol maximum response at 1 µM on Adrenergic β2 stood at 94%.

On to `O=C1COc2c(CCNCCN(C(=O)CCOCCc3cccc(CN4CCC5(CC4)CN(C(=O)Cc4c[nH]c6ccccc46)CCO5)c3)C3CCCCC3)ccc(O)c2N1` [Example 141, 3-(3-((4-(2-(1H-Indol-3-yl)acetyl)-1-oxa-4,9-diazaspiro[5.5]undecan-9-yl)methyl)phenethoxy)-N-cyclohexyl-N-(2-(2-(5-hydroxy-3-oxo-3,4-dihydro-2H-benzo[b][1,4]oxazin-8-yl)ethylamino)ethyl)propanamide], for which the inhibition at 1 µM in assay [1] is 96%. Besides, at Adrenergic β2, the percent of formoterol maximum response at 1 µM turned out to be 108%.

As for `Cc1cc(C)n2nc(C(=O)N3CCOC4(CCN(Cc5cccc(CCOCCC(=O)N(CCNCCc6ccc(O)c7c6OCC(=O)N7)C6CCCCC6)c5)CC4)C3)cc2n1` [Example 142, N-Cyclohexyl-3-(3-((4-(5,7-dimethylpyrazolo[1,5-a]pyrimidine-2-carbonyl)-1-oxa-4,9-diazaspiro[5.5]undecan-9-yl)methyl)phenethoxy)-N-(2-(2-(5-hydroxy-3-oxo-3,4-dihydro-2H-benzo[b][1,4]oxazin-8-yl)ethylamino)ethyl)propanamide], in assay [1], the inhibition at 1 µM was determined as 100%. For the same compound, the percent of formoterol maximum response at 1 µM on Adrenergic β2 stood at 83%.

For the compound `O=C1COc2c(CCNCCN(C(=O)CCOCCc3cccc(CN4CCC5(CC4)CN(C(=O)C46CC7CC(F)(CC(F)(C7)C4)C6)CCO5)c3)C3CCCCC3)ccc(O)c2N1` [Example 143], the “M3 % inhibition @1 uM” value in assay [1] is 101%. Also, the “β2 % effect @1 uM” value at Adrenergic β2 turned out to be 105%.

Take `O=C1COc2c(CCNCCN(C(=O)CCOCCc3cccc(CN4CCC5(CC4)CN(C(=O)c4cnc(-c6ccccc6)[nH]4)CCO5)c3)C3CCCCC3)ccc(O)c2N1` [Example 145, N-Cyclohexyl-N-(2-(2-(5-hydroxy-3-oxo-3,4-dihydro-2H-benzo[b][1,4]oxazin-8-yl)ethylamino)ethyl)-3-(3-((4-(2-phenyl-1H-imidazole-5-carbonyl)-1-oxa-4,9-diazaspiro[5.5]undecan-9-yl)methyl)phenethoxy)propanamide]: the inhibition at 1 µM in assay [1] amounted to 90%. Moreover, the percent of formoterol maximum response at 1 µM at Adrenergic β2 is 117%.

For `O=C1COc2c(CCNCCN(C(=O)CCOCCc3cccc(CN4CCC5(CC4)CN(C(=O)CC4(O)CCCCCC4)CCO5)c3)C3CCCCC3)ccc(O)c2N1` [Example 148, N-Cyclohexyl-N-(2-(2-(5-hydroxy-3-oxo-3,4-dihydro-2H-benzo[b][1,4]oxazin-8-yl)ethylamino)ethyl)-3-(3-((4-(2-(l-hydroxycycloheptyl)acetyl)-1-oxa-4,9-diazaspiro[5.5]undecan-9-yl)methyl)phenethoxy)propanamide], in assay [1], the “M3 % inhibition @1 uM” value is given as 95%. Moreover, the “β2 % effect @1 uM” value on Adrenergic β2 is 108%.

`O=C1COc2c(CCNCCN(C(=O)CCOCCc3cccc(CN4CCC5(CC4)CN(C(=O)CCCOCc4ccccc4)CCO5)c3)C3CCCCC3)ccc(O)c2N1` [Example 151, 3-(3-((4-(4-(Benzyloxy)butanoyl)-1-oxa-4,9-diazaspiro[5.5]undecan-9-yl)methyl)phenethoxy)-N-cyclohexyl-N-(2-(2-(5-hydroxy-3-oxo-3,4-dihydro-2H-benzo[b][1,4]oxazin-8-yl)ethylamino)ethyl)propanamide]: the inhibition at 1 µM in assay [1] was determined as 97%. For the same compound, the percent of formoterol maximum response at 1 µM on Adrenergic β2 was determined as 113%.

For `O=C1COc2c(CCNCCN(C(=O)CCOCCc3cccc(CN4CCC5(CC4)CN(C(=O)C(O)C(F)(F)F)CCO5)c3)C3CCCCC3)ccc(O)c2N1` (centres unmarked) [Example 152, N-Cyclohexyl-N-(2-(2-(5-hydroxy-3-oxo-3,4-dihydro-2H-benzo[b][1,4]oxazin-8-yl)ethylamino)ethyl)-3-(3-((4-(3,3,3-trifluoro-2-hydroxypropanoyl)-1-oxa-4,9-diazaspiro[5.5]undecan-9-yl)methyl)phenethoxy)propanamide], the inhibition at 1 µM in assay [1] worked out at 100%. The percent of formoterol maximum response at 1 µM at Adrenergic β2 turned out to be 112%.

As to `O=C1COc2c(CCNCCN(C(=O)CCOCCc3cccc(CN4CCC5(CC4)CN(C(=O)c4cccs4)CCO5)c3)C3CCCCC3)ccc(O)c2N1` [Example 153, N-Cyclohexyl-N-(2-(2-(5-hydroxy-3-oxo-3,4-dihydro-2H-benzo[b][1,4]oxazin-8-yl)ethylamino)ethyl)-3-(3-((4-(thiophene-2-carbonyl)-1-oxa-4,9-diazaspiro[5.5]undecan-9-yl)methyl)phenethoxy)propanamide], the inhibition at 1 µM in assay [1] is 101%. In addition, the percent of formoterol maximum response at 1 µM on Adrenergic β2 was found to be 98%.

The record behind these values is patent US8476265B2, “Compounds-801” (AstraZeneca AB, priority 2010, dated 2013).
